Laboratory results reported in ChEMBL document CHEMBL1201862, “PubChem BioAssay data set” (2004).
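Each compound was tested at five concentrations against cells in 96-well plates for 48 hours. The concentration for 50% growth inhibition is given as GI50.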 The source made the active and inactive calls. Rule as the data show it: active = GI50 up to about 1.1 µM and inactive = higher.

Experiments:
Experiment in all cases: DTP human tumour cell line panel, 48 h
NCI-H522 = system: NCI-H522
A549 = system: A549
SK-MEL-2 = system: SK-MEL-2
RPMI-8226 = system: RPMI-8226
TK-10 = system: TK-10
RXF 393 = system: RXF 393
OVCAR-5 = system: OVCAR-5
LOX IMVI = system: LOX IMVI
NCI-H226 = system: NCI-H226
IGROV-1 = system: IGROV-1
UACC-62 = system: UACC-62
A498 = system: A498
DU-145 = system: DU-145
MDA-N = system: MDA-N
SNB-19 = system: SNB-19
SF-268 = system: SF-268
NCI/ADR-RES = system: NCI/ADR-RES
COLO 205 = system: COLO 205
ACHN = system: ACHN
HCC 2998 = system: HCC 2998
NCI-H23 = system: NCI-H23
MDA-MB-435 = system: MDA-MB-435
SK-OV-3 = system: SK-OV-3
MDA-MB-231 = system: MDA-MB-231
U-251 = system: U-251
UACC-257 = system: UACC-257
SN12C = system: SN12C
SK-MEL-28 = system: SK-MEL-28
PC-3 = system: PC-3
HCT-116 = system: HCT-116
SW-620 = system: SW-620
NCI-H460 = system: NCI-H460
OVCAR-4 = system: OVCAR-4
EKVX = system: EKVX
M14 = system: M14
CCRF-CEM = system: CCRF-CEM
UO-31 = system: UO-31
SF-295 = system: SF-295
MCF7 = system: MCF7
CAKI-1 = system: CAKI-1
Malme-3M = system: Malme-3M
T47D = system: T47D
MOLT-4 = system: MOLT-4
HCT-15 = system: HCT-15
HOP-62 = system: HOP-62
SK-MEL-5 = system: SK-MEL-5
SNB-75 = system: SNB-75
SR = system: SR
OVCAR-8 = system: OVCAR-8
K562 = system: K562
KM12 = system: KM12
786-0 = system: 786-0
HT-29 = system: HT-29
HL-60 = system: HL-60
OVCAR-3 = system: OVCAR-3
SF-539 = system: SF-539
HOP-92 = system: HOP-92

`O=C(NC/C=C/Br)NC1CCNc2ccccc21` (stereo unspecified) was tested. Which GI50 (NCI-H522) did it give?
Its GI50 is 74 µM (inactive).

And the GI50 (A549)?
Its GI50 is 32.2 µM (inactive).

What about the GI50 (SK-MEL-2) of the same compound?
Its GI50 is 30.1 µM (inactive).

And the GI50 (RPMI-8226)?
The GI50 was 27.2 µM (inactive).

What about the GI50 (TK-10) of the same compound?
The GI50 was 42.3 µM (inactive).

What about the GI50 (RXF 393) of the same compound?
The GI50 was 29.2 µM (inactive).

And the GI50 (OVCAR-5)?
Its GI50 is 55.3 µM (inactive).

And the GI50 (LOX IMVI)?
The GI50 was 25.6 µM (inactive).

And the GI50 (NCI-H226)?
The GI50 was 38.8 µM (inactive).

And the GI50 (IGROV-1)?
The GI50 was 76.6 µM (inactive).

And the GI50 (UACC-62)?
Its GI50 is 31.3 µM (inactive).

What about the GI50 (A498) of the same compound?
The GI50 was 31.9 µM (inactive).

What about the GI50 (DU-145) of the same compound?
Its GI50 is 52.1 µM (inactive).

And the GI50 (MDA-N)?
Its GI50 is 31.9 µM (inactive).

What about the GI50 (SNB-19) of the same compound?
Its GI50 is 41.3 µM (inactive).

And the GI50 (SF-268)?
The GI50 was 77.4 µM (inactive).

And the GI50 (NCI/ADR-RES)?
Its GI50 is 32.1 µM (inactive).

And the GI50 (COLO 205)?
Its GI50 is 18.7 µM (inactive).

What about the GI50 (ACHN) of the same compound?
The GI50 was 58.3 µM (inactive).

And the GI50 (HCC 2998)?
Its GI50 is 27.9 µM (inactive).

What about the GI50 (NCI-H23) of the same compound?
Its GI50 is 16.8 µM (inactive).

And the GI50 (MDA-MB-435)?
Its GI50 is 31.6 µM (inactive).

And the GI50 (SK-OV-3)?
Its GI50 is > 100 µM (inactive).

And the GI50 (MDA-MB-231)?
Its GI50 is 41 µM (inactive).

And the GI50 (U-251)?
The GI50 was 73.8 µM (inactive).

And the GI50 (UACC-257)?
Its GI50 is 21.8 µM (inactive).

What about the GI50 (SN12C) of the same compound?
Its GI50 is 45.4 µM (inactive).

And the GI50 (SK-MEL-28)?
The GI50 was 33.7 µM (inactive).

And the GI50 (PC-3)?
The GI50 was 37.3 µM (inactive).

And the GI50 (HCT-116)?
The GI50 was 30.1 µM (inactive).

And the GI50 (SW-620)?
Its GI50 is 52.8 µM (inactive).

What about the GI50 (NCI-H460) of the same compound?
The GI50 was 34.9 µM (inactive).

And the GI50 (OVCAR-4)?
Its GI50 is 72.1 µM (inactive).

What about the GI50 (EKVX) of the same compound?
The GI50 was 47.6 µM (inactive).

And the GI50 (M14)?
The GI50 was 17.7 µM (inactive).

And the GI50 (CCRF-CEM)?
The GI50 was 36.4 µM (inactive).

And the GI50 (UO-31)?
The GI50 was 27.8 µM (inactive).

What about the GI50 (SF-295) of the same compound?
The GI50 was 45.4 µM (inactive).

And the GI50 (MCF7)?
The GI50 was 19.3 µM (inactive).

And the GI50 (CAKI-1)?
Its GI50 is 42.1 µM (inactive).

What about the GI50 (Malme-3M) of the same compound?
Its GI50 is 31.6 µM (inactive).

And the GI50 (T47D)?
The GI50 was 36.5 µM (inactive).

And the GI50 (MOLT-4)?
Its GI50 is 56.8 µM (inactive).

What about the GI50 (HCT-15) of the same compound?
Its GI50 is 37.3 µM.

What about the GI50 (HOP-62) of the same compound?
Its GI50 is 45.2 µM (inactive).

What about the GI50 (SK-MEL-5) of the same compound?
The GI50 was 19.5 µM (inactive).

What about the GI50 (SNB-75) of the same compound?
Its GI50 is 45 µM (inactive).

And the GI50 (SR)?
Its GI50 is 35 µM (inactive).

What about the GI50 (OVCAR-8) of the same compound?
The GI50 was 52.7 µM (inactive).

And the GI50 (K562)?
The GI50 was 30.1 µM (inactive).

What about the GI50 (KM12) of the same compound?
Its GI50 is 38.2 µM (inactive).

And the GI50 (786-0)?
Its GI50 is 26.6 µM (inactive).

And the GI50 (HT-29)?
Its GI50 is 15.7 µM (inactive).

What about the GI50 (HL-60) of the same compound?
The GI50 was 32.1 µM (inactive).

What about the GI50 (OVCAR-3) of the same compound?
Its GI50 is 47.2 µM (inactive).

What about the GI50 (SF-539) of the same compound?
Its GI50 is 20.5 µM (inactive).

For `Cc1ccc(S(=O)(=O)N2CCN3CCN(CCN(C)CCN4CCN(CC4)CCN(S(=O)(=O)c4ccc(C)cc4)CCN(S(=O)(=O)c4ccc(C)cc4)CCN(S(=O)(=O)c4ccc(C)cc4)CCN(S(=O)(=O)c4ccc(C)cc4)CCN4CCN(CCN(C)CCN5CCN(CC5)CCN(S(=O)(=O)c5ccc(C)cc5)CCN(S(=O)(=O)c5ccc(C)cc5)CCN(S(=O)(=O)c5ccc(C)cc5)CC2)CC4)CC3)cc1`, which GI50 (A549) is on record?
The GI50 was 1.82 µM (inactive).

What about the GI50 (RPMI-8226) of the same compound?
The GI50 was 0.308 µM (active).

What about the GI50 (OVCAR-5) of the same compound?
Its GI50 is 1.87 µM (inactive).

What about the GI50 (IGROV-1) of the same compound?
Its GI50 is 1.97 µM (inactive).

And the GI50 (MDA-N)?
The GI50 was 1.52 µM (inactive).

What about the GI50 (SF-268) of the same compound?
The GI50 was 1.14 µM (inactive).

And the GI50 (NCI/ADR-RES)?
Its GI50 is > 100 µM (inactive).

And the GI50 (ACHN)?
The GI50 was 1.79 µM (inactive).

What about the GI50 (HCC 2998) of the same compound?
The GI50 was 0.766 µM (active).

And the GI50 (U-251)?
The GI50 was 0.235 µM (active).

What about the GI50 (UACC-257) of the same compound?
The GI50 was 1.77 µM (inactive).

What about the GI50 (PC-3) of the same compound?
The GI50 was 1.85 µM (inactive).

What about the GI50 (SW-620) of the same compound?
The GI50 was 1.05 µM (active).

What about the GI50 (NCI-H460) of the same compound?
The GI50 was 0.553 µM (active).

What about the GI50 (EKVX) of the same compound?
Its GI50 is 2.33 µM (inactive).

And the GI50 (M14)?
Its GI50 is 1.95 µM (inactive).

What about the GI50 (CCRF-CEM) of the same compound?
Its GI50 is 0.303 µM (active).

And the GI50 (MCF7)?
Its GI50 is 1.5 µM (inactive).

What about the GI50 (MOLT-4) of the same compound?
Its GI50 is 0.437 µM (active).

What about the GI50 (HCT-15) of the same compound?
The GI50 was 1.49 µM.

What about the GI50 (SK-MEL-5) of the same compound?
The GI50 was 1.63 µM (inactive).

And the GI50 (SNB-75)?
Its GI50 is 1.35 µM (inactive).

What about the GI50 (SR) of the same compound?
The GI50 was 0.254 µM (active).

And the GI50 (OVCAR-8)?
Its GI50 is 2.1 µM (inactive).

And the GI50 (K562)?
The GI50 was 0.248 µM (active).

What about the GI50 (KM12) of the same compound?
Its GI50 is 0.541 µM (active).

What about the GI50 (HT-29) of the same compound?
Its GI50 is 0.208 µM (active).

And the GI50 (HL-60)?
Its GI50 is 0.407 µM (active).

What about the GI50 (HOP-92) of the same compound?
The GI50 was 1.04 µM (active).

What about the GI50 (SF-539) of the same compound?
Its GI50 is 2.06 µM (inactive).
